Structures are written as SMILES.

IC50 data for 5 compounds are collected here from patent US20120165306A1, “PYRAZINYLPYRIDINES USEFUL FOR THE TREATMENT OF PROLIFERATIVE DISEASES” (priority 2009, published 2012).

This test addresses Cdk9/cyclinT1 (Homo sapiens, UniProt P50750). Put plainly: Cdk9/cyclinT1 kinase assay (IMAP or Alpha Screen protocol).

Sequence of Cdk9/cyclinT1 (P50750 whole entry): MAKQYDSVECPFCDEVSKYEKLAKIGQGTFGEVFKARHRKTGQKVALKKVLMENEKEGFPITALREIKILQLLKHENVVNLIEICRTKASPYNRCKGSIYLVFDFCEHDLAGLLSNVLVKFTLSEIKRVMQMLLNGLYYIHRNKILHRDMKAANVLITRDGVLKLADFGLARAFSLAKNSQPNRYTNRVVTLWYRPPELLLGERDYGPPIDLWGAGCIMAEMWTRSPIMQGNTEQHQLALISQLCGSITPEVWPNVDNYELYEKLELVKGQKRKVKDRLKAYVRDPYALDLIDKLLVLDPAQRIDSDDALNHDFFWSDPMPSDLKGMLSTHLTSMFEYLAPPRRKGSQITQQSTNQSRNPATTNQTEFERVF
Sequence of Cdk9/cyclinT1 (O60563 whole entry partner): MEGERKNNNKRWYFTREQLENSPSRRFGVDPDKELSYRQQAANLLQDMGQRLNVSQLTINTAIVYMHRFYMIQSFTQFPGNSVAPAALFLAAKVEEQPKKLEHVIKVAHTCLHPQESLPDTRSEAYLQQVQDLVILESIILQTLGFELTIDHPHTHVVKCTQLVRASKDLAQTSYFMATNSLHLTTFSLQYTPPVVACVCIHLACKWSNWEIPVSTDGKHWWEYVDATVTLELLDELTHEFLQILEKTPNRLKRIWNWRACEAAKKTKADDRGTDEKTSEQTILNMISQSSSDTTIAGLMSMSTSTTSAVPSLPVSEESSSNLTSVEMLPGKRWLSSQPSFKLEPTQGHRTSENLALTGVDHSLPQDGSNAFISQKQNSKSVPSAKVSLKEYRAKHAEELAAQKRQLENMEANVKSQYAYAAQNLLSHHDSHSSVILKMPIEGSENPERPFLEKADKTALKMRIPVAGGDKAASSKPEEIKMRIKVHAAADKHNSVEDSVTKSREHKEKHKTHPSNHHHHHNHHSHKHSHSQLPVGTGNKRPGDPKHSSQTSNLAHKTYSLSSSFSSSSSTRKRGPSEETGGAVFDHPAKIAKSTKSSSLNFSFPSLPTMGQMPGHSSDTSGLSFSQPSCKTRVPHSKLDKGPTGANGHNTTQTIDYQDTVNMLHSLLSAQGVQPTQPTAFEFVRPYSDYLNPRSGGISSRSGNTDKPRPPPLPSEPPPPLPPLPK
Excerpt: Cdk9/cyclinT1 IMAP Protocol
Fluorescence polarization (FP) is used for detection.
Cdk9/cyclinT1 Alpha Screen Protocol

The compound `O=C(Nc1cc(-c2cncc(NCC3CCOCC3)n2)c(Cl)cn1)[C@H]1CNC[C@H]1F` [Example 64, (3R,4S)-4-Fluoro-pyrrolidine-3-carboxylic acid (5-chloro-4-{6-[(tetrahydro-pyran-4-ylmethyl)-amino]-pyrazin-2-yl}-pyridin-2-yl)-amide] came in with an IC50 of less than 8 nM.

`CS(=O)(=O)N1CCC[C@H](C(=O)Nc2cc(-c3cncc(NCC4CCOCC4)n3)c(C(F)(F)F)cn2)C1` [Example 65, (S)-1-Methanesulfonyl-piperidine-3-carboxylic acid (4-{6-[(tetrahydro-pyran-4-ylmethyl)-amino]-pyrazin-2-yl}-5-trifluoromethyl-pyridin-2-yl)-amide]: the half-inhibitory concentration (IC50) stood at 103 nM.

In the case of `CCS(=O)(=O)N1CCC[C@H](C(=O)Nc2cc(-c3cncc(NCC4CCOCC4)n3)c(C(F)(F)F)cn2)C1` [Example 66, (S)-1-Ethanesulfonyl-piperidine-3-carboxylic acid (4-{6-[(tetrahydro-pyran-4-ylmethyl)-amino]-pyrazin-2-yl}-5-trifluoromethyl-pyridin-2-yl)-amide], the IC50 came out at 100 nM.

The compound `CC(C)S(=O)(=O)N1CCC[C@H](C(=O)Nc2cc(-c3cncc(NCC4CCOCC4)n3)c(C(F)(F)F)cn2)C1` [Example 67, (S)-1-(Propane-2-sulfonyl)-piperidine-3-carboxylic acid (4-{6-[(tetrahydro-pyran-4-ylmethyl)-amino]-pyrazin-2-yl}-5-trifluoromethyl-pyridin-2-yl)-amide] returned a 50% inhibitory concentration (IC50) of 133 nM.

Take `CN1CC(C(=O)Nc2cc(-c3cncc(NCC4CCOCC4)n3)c(Cl)cn2)CC1=O` (centres unmarked) [Example 68, 1-Methyl-5-oxo-pyrrolidine-3-carboxylic acid (5-chloro-4-{6-[(tetrahydro-pyran-4-ylmethyl)-amino]-pyrazin-2-yl}-pyridin-2-yl)-amide]: the IC50 is less than 8 nM.
